Laboratory results from patent US20240398828A1, “HETERO-ATOM CONTAINING COMPOUNDS AND USES THEREOF” (Kumquat Biosciences Inc., priority 2021, published 2024).
pIC50: −log10 of the molar value.

Experiments:
PTPN2 (i.e., TC-PTP) = target: T1, PTPN2 (i.e., TC-PTP) (Homo sapiens, UniProt P17706); assay: Phosphatase activity assay (DiFMUP substrate), PTPN2; assay type: biochemical; conditions: compounds binned ≤1 uM or >1 uM
T1 sequence (P17706 1-415): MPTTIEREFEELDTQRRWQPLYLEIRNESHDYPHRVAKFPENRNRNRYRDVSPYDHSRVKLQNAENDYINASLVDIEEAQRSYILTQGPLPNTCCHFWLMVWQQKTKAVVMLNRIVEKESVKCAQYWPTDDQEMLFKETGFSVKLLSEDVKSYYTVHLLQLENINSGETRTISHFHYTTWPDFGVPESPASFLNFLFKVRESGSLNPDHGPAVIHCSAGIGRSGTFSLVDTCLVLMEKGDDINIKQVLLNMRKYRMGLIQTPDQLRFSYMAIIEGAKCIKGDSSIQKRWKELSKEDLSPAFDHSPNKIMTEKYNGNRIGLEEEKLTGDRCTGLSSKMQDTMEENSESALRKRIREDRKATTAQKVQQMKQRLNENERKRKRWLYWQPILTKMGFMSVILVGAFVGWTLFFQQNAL
How it was run: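 Using a Km-level DiFMUP substrate and 0.025 ng/ul PTPN2, phosphatase activity is tracked by DiFMU emission at 450 nm over about 15–30 minutes. Initial rates at ten inhibitor concentrations give IC50 by four-parameter fitting.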

PTPN1 (i.e., PTP1B) = target: T2, PTPN1 (i.e., PTP1B) (Homo sapiens, UniProt P18031); assay: Phosphatase activity assay (DiFMUP substrate), PTP1B; assay type: biochemical; conditions: compounds binned ≤1 uM or >1 uM
T2 sequence (P18031 1-435): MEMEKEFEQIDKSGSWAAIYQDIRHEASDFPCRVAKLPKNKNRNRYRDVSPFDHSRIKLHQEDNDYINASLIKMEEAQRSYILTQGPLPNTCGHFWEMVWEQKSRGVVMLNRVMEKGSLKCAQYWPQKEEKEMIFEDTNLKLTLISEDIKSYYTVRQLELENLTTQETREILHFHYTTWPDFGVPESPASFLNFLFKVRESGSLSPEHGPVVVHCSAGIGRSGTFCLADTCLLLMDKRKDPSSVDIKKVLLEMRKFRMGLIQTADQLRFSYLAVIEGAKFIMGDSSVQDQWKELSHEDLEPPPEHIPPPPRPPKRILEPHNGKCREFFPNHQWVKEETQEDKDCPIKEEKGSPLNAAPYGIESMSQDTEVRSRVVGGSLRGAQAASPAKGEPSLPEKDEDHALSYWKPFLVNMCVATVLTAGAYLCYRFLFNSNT
How it was run: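 Enzyme (e.g. PTPN2 0.025 ng/ul) mixed about 2 min with compound at 10 serial concentrations in 50 mM HEPES pH 7.5, 150 mM NaCl, 0.5 mM EDTA, 1 mM DTT, 0.001% Tween-20 at room temperature. DiFMUP added at each enzyme's Km (about 45 μM for PTPN2). DiFMU fluorescence (ex 360/em 450 nm) followed 15-30 min; IC50 from 4-parameter fit of rates.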

| Compound | pIC50 (PTPN2 (i.e., TC-PTP)) | pIC50 (PTPN1 (i.e., PTP1B)) |
| --- | --- | --- |
| O=C1CN(c2c(O)ccc(-c3cc(C4CC4(F)F)n(CC(F)F)n3)c2F)S(=O)(=O)N1 (stereo not drawn) [Compound 508, 5-(3-(5-(2,2-difluorocyclopropyl)-1-(2,2-difluoroethyl)-1H-pyrazol-3-yl)-2-fluoro-6-hydroxyphenyl)-1,2,5-thiadiazolidin-3-one 1,1-dioxide] | ≥ 6.00 | ≥ 6.00 |
| CCn1cc(-c2ccc(O)c(N3CC(=O)NS3(=O)=O)c2F)c(F)n1 [Compound 506, 5-(3-(1-ethyl-3-fluoro-1H-pyrazol-4-yl)-2-fluoro-6-hydroxyphenyl)-1,2,5-thiadiazolidin-3-one 1,1-dioxide] | ≥ 6.00 | ≥ 6.00 |
| O=C1CN(c2c(O)ccc(C3=CCN(CCC(F)F)C3)c2F)S(=O)(=O)N1 [Compound 534, 5-(3-(1-(3,3-difluoropropyl)-2,5-dihydro-1H-pyrrol-3-yl)-2-fluoro-6-hydroxyphenyl)-1,2,5-thiadiazolidin-3-one 1,1-dioxide] | ≥ 6.00 | ≥ 6.00 |
| COCC1CCCN1c1cc(-c2ccc(O)c(N3CC(=O)NS3(=O)=O)c2F)[nH]n1 (stereo not drawn) [Compound 372, 5-(2-fluoro-6-hydroxy-3-(3-(2-(methoxymethyl)pyrrolidin-1-yl)-1H-pyrazol-5-yl)phenyl)-1,2,5-thiadiazolidin-3-one 1,1-dioxide] | ≥ 6.00 | ≥ 6.00 |
| O=C1CN(c2c(O)ccc(-c3c[nH]c(C4CC4)c3)c2F)S(=O)(=O)N1 [Compound 394, 5-(3-(5-cyclopropyl-1H-pyrrol-3-yl)-2-fluoro-6-hydroxyphenyl)-1,2,5-thiadiazolidin-3-one 1,1-dioxide] | ≥ 6.00 | ≥ 6.00 |

More lines, now with the values ahead:

| pIC50 (PTPN2 (i.e., TC-PTP)) | pIC50 (PTPN1 (i.e., PTP1B)) | Compound |
| --- | --- | --- |
| ≥ 6.00 | ≥ 6.00 | NC1CCN(c2cc(-c3ccc(O)c(N4CC(=O)NS4(=O)=O)c3F)[nH]n2)C1 (stereo not drawn) [Compound 322, 5-(3-(3-(3-aminopyrrolidin-1-yl)-1H-pyrazol-5-yl)-2-fluoro-6-hydroxyphenyl)-1,2,5-thiadiazolidin-3-one 1,1-dioxide] |
| ≥ 6.00 | ≥ 6.00 | COC(=O)n1nc(C2CC2)cc1-c1ccc(O)c(N2CC(=O)NS2(=O)=O)c1F [Compound 545, methyl 3-cyclopropyl-5-(3-(1,1-dioxido-4-oxo-1,2,5-thiadiazolidin-2-yl)-2-fluoro-4-hydroxyphenyl)-1H-pyrazole-1-carboxylate] |
| ≥ 6.00 | ≥ 6.00 | N#Cc1ccccc1-n1cnc(-c2ccc(O)c(N3CC(=O)NS3(=O)=O)c2F)c1 [Compound 298, 2-(4-(3-(1,1-dioxido-4-oxo-1,2,5-thiadiazolidin-2-yl)-2-fluoro-4-hydroxyphenyl)-1H-imidazol-1-yl)benzonitrile] |
| ≥ 6.00 | ≥ 6.00 | O=C1CN(c2c(O)ccc(-c3ccc4cccnc4c3)c2F)S(=O)(=O)N1 [Compound 138, 5-(2-fluoro-6-hydroxy-3-(quinolin-7-yl)phenyl)-1,2,5-thiadiazolidin-3-one 1,1-dioxide] |
| ≥ 6.00 | ≥ 6.00 | O=C1CN(c2c(O)ccc(-c3cc(C4CC4CO)n[nH]3)c2F)S(=O)(=O)N1 (stereo not drawn) [Compound 501, 5-(2-fluoro-6-hydroxy-3-(3-(2-(hydroxymethyl)cyclopropyl)-1H-pyrazol-5-yl)phenyl)-1,2,5-thiadiazolidin-3-one 1,1-dioxide] |
| ≥ 6.00 | ≥ 6.00 | O=C1CN(c2c(O)ccc(-c3cnn(Cc4cccc(C(F)(F)F)c4)c3)c2F)S(=O)(=O)N1 [Compound 159, 5-(2-fluoro-6-hydroxy-3-(1-(3-(trifluoromethyl)benzyl)-1H-pyrazol-4-yl)phenyl)-1,2,5-thiadiazolidin-3-one 1,1-dioxide] |
| ≥ 6.00 | ≥ 6.00 | Cn1nc(-c2ccc(O)c(N3CC(=O)NS3(=O)=O)c2F)cc1O [Compound 479, 5-(2-fluoro-6-hydroxy-3-(5-hydroxy-1-methyl-1H-pyrazol-3-yl)phenyl)-1,2,5-thiadiazolidin-3-one 1,1-dioxide] |
